# Experimental data as given in patent US8080235B2, “Protein kinase A reporters useful in high throughput assays” (The Johns Hopkins University, priority 2005, dated 2011).
# Assays:
# Format in all cases: cell-based
# cAMP [1] = assay: ICUE3 live cell high-throughput cAMP plate reader assay (cyan/yellow emission ratio)
# Protocol: (§1) Live Cell Plate Reading. HEK-293 cells were transfected with AKAR3 or ICUE3 using calcium phosphate at 40% confluency and grown for 40 hours. Cells were then trypsinized and plated in a Costar 3603 96-well plate (Corning) at a density of 150,000 cells per well. After incubation for another 24 hours, cells were washed once with HBSS and left in 150 μl of HBSS at 20-25° C. Fluorescence reading was taken on a FLUOstar OPTIMA fluorescence microplate reader (BMG Labtechnologies Inc.) using a 420DF20 excitation filter and two emission filters (470DF40 for cyan and 535DF25 for yellow). A baseline was established in three cycles, each consisting of a full plate reading of yellow intensity, followed by a reading of cyan intensity.
# (§2) Each cycle lasted between 64 and 92 seconds. Cells were then treated with ISO, Fsk, H89, Propranolol (Pro; Sigma), or 3-isobutyl-1-methylxanthine (IBMX; Sigma) as indicated. Readings were taken in additional cycles. FRET change was calculated as the percent increase of emission ratios (yellow-to-cyan for AKAR and cyan-to-yellow for ICUE) over baseline for each well during a given cycle. Several parameters were calculated to assess the efficiency of the assay, including Z′ factor, coefficient of variation, and signal to noise (S/N) ratio (22).
# To follow the activity of the signaling pathway and to assay related drug targets in parallel, we developed a live cell-based high-throughput assay for cAMP, a second messenger that is generated via activation of Gs-coupled GPCRs and exerts its effects by activating PKA and other effectors. Similar improvement approaches were first applied to create a reporter that more than doubled the response of previous “Indicator for cAMP Using Epac” (ICUE), which generates a decrease in FRET upon binding of cAMP (FIG. 5). […] Possible sources of the variation and reduced signal are transfection efficiency and expression variability.
# PKA activity [2] = assay: AKAR3 high-throughput screening of Johns Hopkins Clinical Compound Library; conditions: 10 μM compound about 15 min, then 0.25 μM ISO
# Protocol: Live Cell High-Throughput Screening. […] After incubation for 24 hours, cells were washed once with HBSS and left in 190 μl of HBSS at 20-25° C. Fluorescence readings were taken as described above, with each cycle lasting 90 seconds. Following baseline acquisition, cells in each experimental well were treated with a compound from the Johns Hopkins Clinical Compound Library to a final concentration of 10 μM. Control cells were treated with 10 μL of 10% fetal bovine serum (FBS) in a solution of phosphate buffered saline (PBS) at pH 7.4, which is the solution used to dissolve library compounds.
# Ten final cycles were then performed.
# FRET responses were calculated as described above. […] Agonist hits were defined as compounds eliciting responses larger than six times the standard deviation above the baseline. Antagonist hits were defined as compounds which decreased the ISO stimulated response by 50% or by six times the standard deviation.
# In a primary screening, 160 compounds from the Johns Hopkins Clinical Compound Library were added to AKAR3-expressing HEK-293 cells in individual wells of 96-well plates to a final concentration of 10 μM after a base line reading. Time courses were recorded to monitor any fluorescence changes upon drug addition and to identify hits which activate PKA as potential agonists.
# Potential agonists were identified by selecting compounds which stimulated emission ratio changes larger than 6 times the standard deviation above the negative control (FIG. 3a ).
# PKA activity [3] = assay: AKAR3 live cell 96-well plate reader assay (yellow/cyan emission ratio)
# Protocol: as §1, §2
# AKAR2 (FIG. 4). This reporter, AKAR3 (FIG. 1b), was tested in a 96-well plate format. […] As negative controls, addition of buffer of 2% DMSO generated minimal changes in emission ratios. This 96-well plate assay was sensitive and reproducible, with a signal to noise ratio of 30.3, a Z′ factor of 0.84, and a coefficient of variation (CV) of 1.8% for the Fsk-stimulated response.
# To provide specific readout of compartmentalized PKA activities, we introduced a C-terminal nuclear export signal (NES) to AKAR3 . In the plate reader assay using AKAR3 -NES (FIG. 1d), cytosolic PKA activity was recorded without contamination of nuclear activity, which has slower kinetics due to diffusional translocation of the catalytic subunit from cytosol to nucleus. […] Thus, sensor targeting provides increased temporal and spatial resolution and can be used to reveal how individual signaling microdomains, such as kinase-containing signaling complexes, are affected by drugs or other perturbations, adding another level of capacity to the non-image-based high-throughput assays of the invention.
# cAMP [4] = assay: ICUE high-throughput screening of Johns Hopkins Clinical Compound Library (stable cells); conditions: 10 μM compound, then 0.25 μM Iso plus 100 μM IBMX
# Protocol: Live Cell High-Throughput Screening. HEK-293 cells transiently expressing AKAR or stably expressing ICUE were trypsinized and plated in a Costar 3606 96-well plate (Corning) at a density of 150,000 cells per well. After incubation for 24 hours, cells were washed once with HBSS and left in 190 μl of HBSS at 20-25° C. Fluorescence readings were taken as described above, with each cycle lasting 90 seconds. Following baseline acquisition, cells in each experimental well were treated with a compound from the Johns Hopkins Clinical Compound Library to a final concentration of 10 μM. Control cells were treated with 10 μL of 10% fetal bovine serum (FBS) in a solution of phosphate buffered saline (PBS) at pH 7.4, which is the solution used to dissolve library compounds.
# Readings were taken for 10 cycles spanning a time of approximately 15 minutes, after which cells in experimental wells and positive controls were treated with 0.25 μM ISO (AKAR) or 0.25 μM Iso plus 100 μM IBMX (ICUE), while negative controls received 0.5% DMSO in HBSS. Ten final cycles were then performed.
# FRET responses were calculated as described above. Negative control (10% FBS, 0.5% DMSO) and positive control (10% FBS, 0.25 μM ISO) curves were generated. Agonist hits were defined as compounds eliciting responses larger than six times the standard deviation above the baseline. […]
smiles,measurement,setting,value
"CC(C)NCC(O)COc1cccc2ccccc12 (stereo not drawn) [Pro, propranolol]",effect on Fsk-stimulated ICUE3 response,cAMP [1]; FIG. 2c,no effect
same,effect on ISO-induced ICUE3 response,"cAMP [1]; co-treatment, 10 μM Pro, FIG. 2a",inhibited
same,antagonist screen: effect on ISO-stimulated AKAR response,PKA activity [2],potently inhibited
same,effect on ISO-induced AKAR3 response,"PKA activity [3]; 10 μM Pro, FIG. 2",inhibited
same,effect on Fsk-stimulated AKAR3 response,PKA activity [3]; FIG. 2d,no effect
same,antagonist screen: effect on ISO-stimulated ICUE response,cAMP [4],potently inhibited
